Source: patent EP2957607B1, “IMAGE FORMING METHOD” (Konica Minolta, Inc., priority 2014, dated 2015)

Assay: pKa value (acid dissociation constant) of the adsorption inhibitor
Type: physicochemical
Description: The pKa value is also called the acid dissociation constant, which can be determined by a conventional method. The pKa value can be determined by, for example, the method described in Jikken Kagaku Koza 5, Netsuteki Sokutei oyobi Heiko (Experimental Chemistry Lecture 5, Thermal Measurements and Equilibrium), page 460, edited by The Chemical Society of Japan, Maruzen Co., Ltd.

SMILES: O=C(O)CC(O)C(=O)O (stereo not shown) [malic acid, Malic acid]
- pKa: < 5.5
